# According to ChEMBL document CHEMBL1201862, “PubChem BioAssay data set” (2004):
# The source made the active and inactive calls.
# Experiments:
# [1] = Vero E6 cell cytotoxicity, dose response, cytotoxicity control for non-replicating M. tuberculosis project, secondary assay (AID 492998); type: functional, VeroE6; settings: Vero C1008
# [2] = target: E3 ubiquitin-protein ligase XIAP (Homo sapiens, UniProt P98170); experiment: Counter Screen using XIAP-Bir3 for Chemical Antagonists of Bir1/2 domains of IAP-family anti-apoptotic proteins. [Related pubchem assays (depositor defined):AID1018, AID1449, AID1514, AID1638, AID1749, AID1750, AID488957, AID488963]
# [3] = target: T1, Carboxy-terminal domain RNA polymerase II polypeptide A small phosphatase 1 (Homo sapiens, UniProt Q9GZU7); experiment: inhibitors of CTDSP1, concentration-response testing, biochemical assay, absorbance-based, actives from ultra-high-throughput screening (AID 540297); type: functional
# T1 sequence (Q9GZU7 whole entry): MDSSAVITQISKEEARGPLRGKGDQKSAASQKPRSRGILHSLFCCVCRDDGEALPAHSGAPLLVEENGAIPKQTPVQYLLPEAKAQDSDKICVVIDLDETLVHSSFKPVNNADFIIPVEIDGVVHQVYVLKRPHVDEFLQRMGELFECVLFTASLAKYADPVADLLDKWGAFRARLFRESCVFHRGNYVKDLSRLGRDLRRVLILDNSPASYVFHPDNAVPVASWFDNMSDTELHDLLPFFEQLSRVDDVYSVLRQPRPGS
# [4] = target: T2, Tyrosine-protein phosphatase non-receptor type 22 (Homo sapiens, UniProt Q9Y2R2); experiment: SAR LYP1 Fluorescent Assay using OMFP substrate for In Vitro dose response studies - Set 2. [Related pubchem assays (depositor defined):AID1779, AID1784, AID2140, AID449726, AID488869]; type: functional
# T2 sequence (Q9Y2R2 whole entry): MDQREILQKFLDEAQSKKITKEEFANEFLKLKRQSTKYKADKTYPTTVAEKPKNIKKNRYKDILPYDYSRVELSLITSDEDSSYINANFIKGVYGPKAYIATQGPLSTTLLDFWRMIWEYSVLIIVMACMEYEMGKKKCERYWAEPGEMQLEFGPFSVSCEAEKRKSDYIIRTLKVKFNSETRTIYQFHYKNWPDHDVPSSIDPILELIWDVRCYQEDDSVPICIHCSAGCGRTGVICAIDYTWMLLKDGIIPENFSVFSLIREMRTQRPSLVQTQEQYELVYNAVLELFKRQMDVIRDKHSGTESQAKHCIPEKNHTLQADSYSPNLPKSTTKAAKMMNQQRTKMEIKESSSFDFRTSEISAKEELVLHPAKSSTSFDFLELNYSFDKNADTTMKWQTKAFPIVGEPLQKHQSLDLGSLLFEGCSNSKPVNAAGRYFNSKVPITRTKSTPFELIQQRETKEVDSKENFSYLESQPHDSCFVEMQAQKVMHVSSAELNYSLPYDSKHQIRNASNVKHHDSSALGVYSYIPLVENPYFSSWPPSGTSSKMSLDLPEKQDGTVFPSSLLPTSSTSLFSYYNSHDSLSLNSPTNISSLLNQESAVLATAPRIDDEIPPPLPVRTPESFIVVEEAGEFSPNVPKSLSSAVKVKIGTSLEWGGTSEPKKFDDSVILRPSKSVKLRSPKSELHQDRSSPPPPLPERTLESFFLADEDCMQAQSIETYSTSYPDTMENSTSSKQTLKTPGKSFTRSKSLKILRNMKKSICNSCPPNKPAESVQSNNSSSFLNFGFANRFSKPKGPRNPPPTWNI
# [5] = target: T2, Tyrosine-protein phosphatase non-receptor type 22; experiment: SAR LYP1 Fluorescent Assay using OMFP substrate for In Vitro dose response studies - Set 3. [Related pubchem assays (depositor defined):AID1779, AID1784, AID2140, AID2686]; type: functional
# [6] = target: T2, Tyrosine-protein phosphatase non-receptor type 22; experiment: SAR LYP1 Fluorescent Assay using pCAP substrate for In Vitro dose response studies - Set 2. [Related pubchem assays (depositor defined):AID1779, AID1784, AID2135, AID449727]; type: functional
# [7] = target: T2, Tyrosine-protein phosphatase non-receptor type 22; experiment: LYP (PTPN22) phosphatase inhibitor potency, SAR follow-up, biochemical, pCAP fluorogenic substrate, fluorescence, set 3 (AID 449727); type: functional
# [8] = target: T3, Tyrosine-protein phosphatase non-receptor type 7 (Homo sapiens, UniProt P35236); experiment: HePTP (PTPN7) phosphatase inhibitor potency, SAR follow-up, biochemical, set 2 (AID 449736); type: functional
# T3 sequence (P35236 whole entry): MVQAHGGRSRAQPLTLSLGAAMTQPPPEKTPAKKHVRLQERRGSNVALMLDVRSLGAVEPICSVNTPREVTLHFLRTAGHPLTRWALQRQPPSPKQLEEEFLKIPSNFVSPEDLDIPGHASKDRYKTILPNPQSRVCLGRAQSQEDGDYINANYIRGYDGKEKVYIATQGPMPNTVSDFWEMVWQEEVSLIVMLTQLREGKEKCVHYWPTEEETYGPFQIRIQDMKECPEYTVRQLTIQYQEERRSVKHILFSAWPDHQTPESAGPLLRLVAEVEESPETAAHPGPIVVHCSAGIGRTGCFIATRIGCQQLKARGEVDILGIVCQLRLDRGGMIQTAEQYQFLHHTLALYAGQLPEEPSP
# [9] = target: Tyrosine-protein phosphatase non-receptor type 12 (Homo sapiens, UniProt Q05209); experiment: SAR Selectivity Analysis of small molecule inhibitors of PEST using pCAP in a fluorescence assay. [Related pubchem assays (depositor defined):AID1779, AID1784, AID2135]; type: functional
# [10] = target: T4, Ubiquitin-conjugating enzyme E2 N (Homo sapiens, UniProt P61088); type: functional
# T4 sequence (P61088 whole entry): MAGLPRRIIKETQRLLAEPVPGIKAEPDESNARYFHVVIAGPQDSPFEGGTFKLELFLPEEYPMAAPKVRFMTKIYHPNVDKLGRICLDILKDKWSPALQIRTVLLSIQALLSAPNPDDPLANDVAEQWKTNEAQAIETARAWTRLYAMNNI
# [11] = target: T4, Ubiquitin-conjugating enzyme E2 N; type: functional; remark: listed apart in the source
# Bcl-2-related protein A1 = target: T5, Bcl-2-related protein A1 (Mus musculus, UniProt Q07440); type: functional;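 note: confirmatory dose–response counterscreen on Bfl-1, used to check hits from a UBC13 polyubiquitin inhibitor campaign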
# T5 sequence (Q07440 whole entry): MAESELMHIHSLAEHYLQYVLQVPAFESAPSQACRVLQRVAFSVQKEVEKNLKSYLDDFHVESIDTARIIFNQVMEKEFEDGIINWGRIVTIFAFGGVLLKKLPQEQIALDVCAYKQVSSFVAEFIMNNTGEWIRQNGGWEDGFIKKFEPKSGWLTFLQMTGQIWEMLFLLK
# [12] = target: Sphingosine 1-phosphate receptor 4 (Homo sapiens, UniProt O95977); experiment: Late-stage fluorescence dose response cell-based assay to identify agonists of the Sphingosine 1-Phosphate Receptor 4 (S1P4): purchased compounds EC50. [Related pubchem assays (depositor defined):AID1509, AID1523, AID1563, AID1686, AID1701, AID1801]; type: functional
# Coagulation factor XII = Coagulation factor XII (Homo sapiens, UniProt P00748); type: functional;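 note: activated factor XIIa alpha cleaving a fluorogenic AMC peptide substrate; inhibitor potency from loss of enzyme activity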
# [13] = target: T6, Dual specificity protein phosphatase 6 (Rattus norvegicus, UniProt Q64346); experiment: MKP-3 phosphatase inhibitors, primary screen, biochemical, rat enzyme, in vitro (AID 425)
# T6 sequence (Q64346 whole entry): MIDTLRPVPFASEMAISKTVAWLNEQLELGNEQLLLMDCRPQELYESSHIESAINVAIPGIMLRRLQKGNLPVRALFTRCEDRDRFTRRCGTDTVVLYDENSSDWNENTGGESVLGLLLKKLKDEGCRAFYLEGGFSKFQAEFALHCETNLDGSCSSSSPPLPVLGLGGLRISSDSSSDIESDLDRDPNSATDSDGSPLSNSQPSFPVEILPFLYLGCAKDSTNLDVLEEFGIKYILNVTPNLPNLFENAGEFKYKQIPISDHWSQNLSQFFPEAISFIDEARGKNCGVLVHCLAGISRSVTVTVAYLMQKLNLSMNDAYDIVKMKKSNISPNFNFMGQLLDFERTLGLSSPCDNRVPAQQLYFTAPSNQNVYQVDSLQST
# [14] = target: T7, Dual specificity protein phosphatase 3 (Homo sapiens, UniProt P51452); experiment: VHR1 phosphatase inhibitors, biochemical (AID 1878)
# [15] = target: T7, Dual specificity protein phosphatase 3; experiment: VHR1 phosphatase inhibitors, primary screen, biochemical, absorbance, uHTS (AID 1654)
# [16] = target: G-protein coupled receptor 55 (Homo sapiens, UniProt Q9Y2T6); experiment: GPR55 antagonists blocking LPI-driven arrestin recruitment, primary screen, imaging, U2OS, beta-arrestin-GFP, LPI agonist (AID 2013); type: functional;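 note: antagonist potency measured as reduced agonist-driven arrestin aggregation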
# [17] = NIH-3T3 fibroblast cytotoxicity, dose response, cytotoxicity control, cell-based, fluorescence, Alamar Blue, secondary assay (AID 2327); type: functional;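 note: NIH-3T3 mouse fibroblasts cultured with fluconazole at 8 µg/mL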
# [18] = inhibitors of intracellular T. cruzi replication, confirmation, NIH3T3 host cells, beta-gal luminescence (AID 2044); type: functional, cell-based;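 note: intracellular parasites grown in NIH/3T3 mouse fibroblasts as host cells; luminescent beta-galactosidase reporter signal from transgenic T. cruzi replicating inside host cells; inhibitors lower the luminescence signal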
# [19] = A549 cell cytotoxicity, dose response, cytotoxicity control, plate reader, cherry-pick, antagonist series (AID 743412); type: functional, cell-based
# INS1 = experiment: beta cell apoptosis inhibitors, cytokine rescue, dose response, luminescence, retest (AID 449756); type: functional, cell-based; settings: Rattus norvegicus;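 note: cell death triggered by IL-1 beta plus TNF-alpha plus IFN-gamma mixture; protective hits raise ATP signal compared with cytokine alone wells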
# [20] = Shn3 3'UTR reporter inhibitors, dose response, cell-based, Clone20 osteoblasts, firefly luciferase, cherry-picked (AID 624132); type: functional;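 note: firefly luciferase luminescence from reporter carrying the Shn3 3'UTR in osteoblasts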
# [21] = MC4R antagonists, dose response, counter-screen for LGR2 antagonist project, cell-based, plate reader, cherry pick (AID 743444); type: functional;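 note: transfected HEK 293 cells stimulated with alpha-MSH peptide; potency of inhibitors of the alpha-MSH evoked signal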
# [22] = HepG2 cell cytotoxicity, dose response, cytotoxicity control for Shn3 inhibitor project, CellTiter-Glo, cherry-picked (AID 624134); type: functional, cell-based
# [23] = HepG2 cell cytotoxicity, dose response, cytotoxicity control, plate reader, cherry-pick, antagonist series (AID 743416); type: functional, cell-based
# [24] = target: DNA damage-inducible transcript 3 protein (Mus musculus, UniProt P35639); type: functional, Cricetulus griseus
# [25] = cytotoxicity toward NIH3T3 fibroblasts, dose response, counter-screen, cell-based, ATP luminescence, mouse fibroblasts (AID 2010); type: functional;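 note: cells exposed to compound for about 90 hours before reading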
# [26] = control 3'UTR Renilla luciferase suppression, dose response, counter-screen for Shn3 inhibitor project, cell-based, Clone20-Shn3RL, cherry-picked (AID 624133); type: functional
# [27] = LGR2 antagonists, dose response, cell-based, HEK293, CRE-luciferase reporter, cherry pick, set 2 (AID 743343); type: functional;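 note: transfected cells were stimulated with diluted bursicon conditioned medium after compound addition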
# X-box-binding protein 1 = X-box-binding protein 1 (Homo sapiens, UniProt P17861); type: functional, Cricetulus griseus;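 note: confirmatory dose-response counter-screen serving a CHOP assay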
# [28] = C. albicans growth with fluconazole, confirmation, fluorescence, retest (AID 2467); type: functional, cell-based
# [29] = HEK293 cell cytotoxicity, dose response, cytotoxicity control, plate reader, cherry-picked samples (AID 743446); type: functional, cell-based
# T7 sequence (P51452 whole entry): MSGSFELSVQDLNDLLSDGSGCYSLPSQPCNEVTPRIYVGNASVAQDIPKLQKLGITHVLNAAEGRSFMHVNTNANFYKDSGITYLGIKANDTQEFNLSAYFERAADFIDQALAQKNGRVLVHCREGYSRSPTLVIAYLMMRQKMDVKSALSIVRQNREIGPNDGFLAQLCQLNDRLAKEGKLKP
# Chain of Tyrosine-protein phosphatase non-receptor type 12 (Q05209 whole entry): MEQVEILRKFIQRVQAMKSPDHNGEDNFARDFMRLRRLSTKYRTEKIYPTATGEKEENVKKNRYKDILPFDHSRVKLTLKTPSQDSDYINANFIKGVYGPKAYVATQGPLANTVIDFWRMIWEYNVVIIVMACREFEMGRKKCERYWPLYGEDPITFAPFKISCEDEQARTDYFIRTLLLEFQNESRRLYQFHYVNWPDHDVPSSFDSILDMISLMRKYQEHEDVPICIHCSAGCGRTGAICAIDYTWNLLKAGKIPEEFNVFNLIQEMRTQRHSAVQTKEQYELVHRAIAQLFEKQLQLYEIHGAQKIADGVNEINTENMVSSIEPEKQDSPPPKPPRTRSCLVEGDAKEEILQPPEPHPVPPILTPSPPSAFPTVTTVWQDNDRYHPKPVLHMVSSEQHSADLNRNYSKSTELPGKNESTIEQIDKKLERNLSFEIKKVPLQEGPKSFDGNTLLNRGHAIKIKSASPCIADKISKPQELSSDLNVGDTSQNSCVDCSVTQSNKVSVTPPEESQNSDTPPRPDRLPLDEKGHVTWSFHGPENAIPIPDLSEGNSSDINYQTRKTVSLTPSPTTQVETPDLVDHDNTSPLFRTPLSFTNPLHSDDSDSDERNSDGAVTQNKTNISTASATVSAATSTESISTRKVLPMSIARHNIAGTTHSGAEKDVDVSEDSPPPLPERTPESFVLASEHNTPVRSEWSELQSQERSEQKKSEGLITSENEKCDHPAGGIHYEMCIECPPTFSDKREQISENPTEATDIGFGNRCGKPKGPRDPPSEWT
# Chain of DNA damage-inducible transcript 3 protein (P35639 whole entry): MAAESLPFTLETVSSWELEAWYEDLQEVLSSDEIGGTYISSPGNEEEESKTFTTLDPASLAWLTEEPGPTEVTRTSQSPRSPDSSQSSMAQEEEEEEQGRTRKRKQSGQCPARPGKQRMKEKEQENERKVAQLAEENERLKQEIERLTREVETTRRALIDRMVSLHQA
# Chain of X-box-binding protein 1 (P17861 whole entry): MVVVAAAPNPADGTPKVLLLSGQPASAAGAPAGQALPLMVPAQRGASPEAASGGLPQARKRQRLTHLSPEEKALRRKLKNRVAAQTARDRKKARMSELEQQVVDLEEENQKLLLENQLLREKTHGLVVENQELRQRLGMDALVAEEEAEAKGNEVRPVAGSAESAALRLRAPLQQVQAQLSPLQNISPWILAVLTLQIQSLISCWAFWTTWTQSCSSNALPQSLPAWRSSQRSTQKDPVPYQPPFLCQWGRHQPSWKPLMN
# Chain of Coagulation factor XII (P00748 20-372 limits assumed): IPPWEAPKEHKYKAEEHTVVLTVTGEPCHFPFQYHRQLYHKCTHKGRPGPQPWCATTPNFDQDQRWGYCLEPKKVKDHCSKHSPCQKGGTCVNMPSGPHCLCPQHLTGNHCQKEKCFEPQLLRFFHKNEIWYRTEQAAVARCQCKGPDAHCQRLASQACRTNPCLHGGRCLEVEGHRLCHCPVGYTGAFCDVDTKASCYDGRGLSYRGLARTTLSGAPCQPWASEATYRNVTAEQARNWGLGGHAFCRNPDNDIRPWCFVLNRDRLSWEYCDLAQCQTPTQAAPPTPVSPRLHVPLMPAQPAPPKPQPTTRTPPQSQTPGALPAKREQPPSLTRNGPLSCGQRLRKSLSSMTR
# Chain of Coagulation factor XII (P00748 373-615 limits assumed): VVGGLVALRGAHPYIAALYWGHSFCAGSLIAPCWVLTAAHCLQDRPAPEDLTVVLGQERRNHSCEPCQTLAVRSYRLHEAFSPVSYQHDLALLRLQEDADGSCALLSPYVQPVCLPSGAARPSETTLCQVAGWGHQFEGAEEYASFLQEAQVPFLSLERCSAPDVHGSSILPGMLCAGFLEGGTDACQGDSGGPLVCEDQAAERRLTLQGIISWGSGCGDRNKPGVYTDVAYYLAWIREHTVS
# Chain of G-protein coupled receptor 55 (Q9Y2T6 whole entry): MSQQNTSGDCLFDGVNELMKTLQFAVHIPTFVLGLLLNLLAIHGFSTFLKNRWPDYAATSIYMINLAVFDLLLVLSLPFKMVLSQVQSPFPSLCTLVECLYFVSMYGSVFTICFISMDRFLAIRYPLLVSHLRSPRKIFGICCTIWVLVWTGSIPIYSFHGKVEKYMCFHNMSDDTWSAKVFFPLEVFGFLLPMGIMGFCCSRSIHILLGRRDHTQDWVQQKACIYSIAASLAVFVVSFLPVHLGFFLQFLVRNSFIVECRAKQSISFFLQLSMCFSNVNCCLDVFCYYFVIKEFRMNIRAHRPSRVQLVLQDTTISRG
# Chain of E3 ubiquitin-protein ligase XIAP (P98170 whole entry, the tested form may be a part): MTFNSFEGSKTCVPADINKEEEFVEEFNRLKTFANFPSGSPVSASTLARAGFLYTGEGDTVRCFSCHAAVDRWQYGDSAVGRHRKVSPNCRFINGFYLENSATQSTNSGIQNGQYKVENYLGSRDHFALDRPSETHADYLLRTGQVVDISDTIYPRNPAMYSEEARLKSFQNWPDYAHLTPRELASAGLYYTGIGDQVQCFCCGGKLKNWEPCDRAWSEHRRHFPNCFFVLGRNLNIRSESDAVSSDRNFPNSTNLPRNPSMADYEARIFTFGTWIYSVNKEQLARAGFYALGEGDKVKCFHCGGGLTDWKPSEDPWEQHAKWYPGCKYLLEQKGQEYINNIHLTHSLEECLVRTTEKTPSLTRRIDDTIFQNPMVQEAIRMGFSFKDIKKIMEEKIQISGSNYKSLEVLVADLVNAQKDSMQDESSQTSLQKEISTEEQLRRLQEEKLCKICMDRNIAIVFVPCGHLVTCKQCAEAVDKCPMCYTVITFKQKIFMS
# Chain of Sphingosine 1-phosphate receptor 4 (O95977 whole entry): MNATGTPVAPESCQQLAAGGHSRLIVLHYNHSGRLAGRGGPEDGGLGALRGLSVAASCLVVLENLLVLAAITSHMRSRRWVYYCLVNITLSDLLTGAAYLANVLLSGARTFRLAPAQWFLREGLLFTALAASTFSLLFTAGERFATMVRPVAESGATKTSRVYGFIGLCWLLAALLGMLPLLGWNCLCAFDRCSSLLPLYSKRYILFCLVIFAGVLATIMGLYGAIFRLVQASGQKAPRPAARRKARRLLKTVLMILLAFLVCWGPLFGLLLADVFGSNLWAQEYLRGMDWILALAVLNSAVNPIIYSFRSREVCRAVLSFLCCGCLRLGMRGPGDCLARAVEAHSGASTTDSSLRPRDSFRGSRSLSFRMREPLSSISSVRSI
smiles,measurement,setting,value
N=C(NOC(=O)c1cccc2ccccc12)c1cccnc1,CC50,[1],15 µM (active)
Cc1coc2c(C)c3oc(=O)c(CCC(=O)N[C@@H](C)C(=O)N[C@@H](Cc4ccccc4)C(=O)O)c(C)c3cc12,IC50,[2],> 20 µM (inactive)
same,IC50,[3],3.6 µM (active)
N#C/C(=C\c1ccc(OCc2ccc(F)cc2)cc1)C(=O)Nc1cccc(C(=O)O)c1,IC50,[4],5.27 µM (active)
same,IC50,[5],0.967 µM (active)
same,IC50,[6],5.52 µM (active)
same,IC50,[3],4.13 µM (active)
same,IC50,[7],6.93 µM (active)
same,IC50,[8],2.03 µM (active)
same,IC50,[9],0.916 µM (active)
CCCCn1c(=O)[nH]c(=O)c2c1nc(-c1ccc(C#N)cc1)n2C1CCCC1,IC50,[10],1.99 µM (active)
same,IC50,[11],18.7 µM (active)
same,IC50,Bcl-2-related protein A1,> 20 µM (inactive)
Cc1ccc(OCc2cc3ccc(C)c(C)c3nc2Cl)c([N+](=O)[O-])n1,EC50,[12],> 50 µM (inactive)
CCCCOC(=O)c1ccc(NC(=O)C(=O)NCc2ccco2)cc1,IC50,Coagulation factor XII,> 50 µM (inactive)
Cc1snc2sc(C(=O)c3ccc(F)cc3)c(N)c12,IC50,[13],> 158 µM (not active)
same,IC50,[14],2.03 µM (active)
same,IC50,[15],< 1.23 µM (inactive)
Cc1ccc(Nc2nc(NCc3ccco3)c3ccccc3n2)cc1.Cl,IC50,[16],5.21 µM (active)
same,EC50,[17],> 160 µM (inconclusive)
same,IC50,[11],> 20 µM (inactive)
same,EC50,[18],< 0.1 µM (active)
same,AC50,[19],10.9 µM (active)
same,AC50,INS1,3.65 µM (active)
same,AC50,[20],9.84 µM (active)
same,AC50,[21],12.3 µM (active)
same,AC50,[22],12.6 µM (active)
same,AC50,[23],7.35 µM (active)
same,EC50,cells,0.094 µM (active)
same,Absolute IC50 (CHOP),[24],10 µM
same,EC50,[25],> 30 µM (not active)
same,AC50,[26],3.31 µM (active)
same,AC50,[27],9.43 µM (active)
same,Absolute IC50 (XBP1),X-box-binding protein 1,10 µM
same,EC50,[28],3.24 µM (active)
same,AC50,[29],16.1 µM (active)
